The target in test [1] is T1, HIV-1 protease (Q7S mutant form) (Human immunodeficiency virus type 1 group M subtype B, UniProt P04585, Q495S).
T1 construct: made in house
Briefly: HIV-1 Protease RET assay. In kind it is biochemical. The protocol:
Ki's for the inhibitors of HIV-1 protease were determined using a resonance energy transfer (RET) assay. […] This enzyme is first partially purified as inclusion bodies from cell lysate. It is then solublized in 8M urea and passed through a Q-Sepharose column (Pharmacia) for further purification. To refold this protein, samples containing Q7S is dialyzed into 50 mM sodium phosphate pH 7.0, 50 mM NaCl, 10 mM DTT, and 10% glycerol.
The commercially available peptide substrate (Molecular Probes Cat. # H-2930) RE(EDANS)SQNYPIVQK(DABCYL)R is used to assess activity and Ki's. This peptide is cleaved quantitatively by HIV-1 Pr at the Tyr-Pro bond. The EDANS fluorophore absorbs at 340 nm and emits at 490 nm. The reaction is carried out in a 96 well plate in a total volume of 100 µL and is run for 12 minutes at 37 C under steady-state conditions with 5 µM substrate and 2 nM active dimer enzyme concentration. The literature value Km for this substrate and enzyme is 103+/−8 µM (See Matayoshi, et al., “Novel Fluorogenic Substrates for Assaying Retroviral Proteases by Resonance Energy Transfer,” Science 247, 954 (1990)). The buffer for this reaction is 0.1M sodium acetate pH 4.8, 1M NaCl, 1 mM EDTA, 5 mM dithiothreitol, 10% dimethyl sulfoxide and 1 mg/ml bovine serum albumin. Inhibition curves are fit using the Morrison tight binding equation.

In test [2] the test system is HIV-1 (HIV-1 RF, HIV-1 NL4-3) in CEM-SS / MT-2 cells. Briefly: Cytopathic effect (CPE) inhibition assay (XTT/MTT dye reduction). The test is classed as cell-based. The protocol:
T-cell lines, CEM-SS, and MT-2, and viruses HIV-1 RF and HIV-1 NL4-3 (pNL4-3) were obtained from the National Institutes of Health (AIDS Research and Reference Reagent Program, Bethesda, Md.).
Cytopathic Effect (CPE) Inhibition Assays
The ability of compounds to protect cells against HIV infection was measured by the […] dye reduction method, essentially as described (See Pauwels, R. Balzarini, J. Baba, M. Snoeck, R. Schols, D. Herdewijn, P. Desmyter, J. and De Clercq, E. 1988, “Rapid and automated tetrazolium-based colorimetric assay for the detection of anti-HIV compounds,”. J Virol. Methods., 20: 309–321 and Weislow, O. S. Kiser, R. Fine, D. L. Bader, J. Shoemaker, R. H. and Boyd, M. R. 1989. “New soluble-formazan assay for HIV-1 cytopathic effects: application to high-flux screening of synthetic and natural products for AIDS-antiviral activity”. J. Natl. Cancer Inst. 81:577–586). Subject cells were infected with test virus at an moi of 0.025 to 0.819 or mock infected with medium only and added at 2×10^4 cells per well into 96 well plates containing half-log dilutions of test compounds. Six days later, 50 μl of XTT (1 mg/ml XTT tetrazolium, 0.02 nM phenazine methosulfate) was added to the wells and the plate was reincubated for four hours. Viability, as determined by the amount of XTT formazan produced, was quantified spectrophotometrically by absorbance at 450 nm. Data from CPE assays were expressed as the percent of formazan produced in compound-treated cells compared to formazan produced in wells of uninfected, compound-free cells. The fifty percent effective concentration (EC50) was calculated as the concentration of compound that effected an increase in the percentage of formazan production in infected, compound-treated cells to 50% of that produced by uninfected, compound-free cells. The 50% cytotoxicity concentration (CC50) was calculated as the concentration of compound that decreased the percentage of formazan produced in uninfected, compound-treated cells to 50% of that produced in uninfected, compound-free cells. The therapeutic index was calculated by dividing the cytotoxicity (CC50) by the antiviral activity (EC50).
(In general: Protection from cytopathic effect is a common read-out in antiviral testing.)

Where [3] appears, read: Human immunodeficiency virus 1, NL43, unit inferred, read-out: EC50.
The mark [4] stands for this setting: Ave. Ki (nM), RET assay, Q7S enzyme, Morrison tight binding fit.
Setting [5] is: Human immunodeficiency virus 1, NL43, read-out: Ave CPE EC50.

Where two headings read alike, the source gives them in different places. Some results are limits rather than exact numbers.

In general, Ki refers to the dissociation constant of the complex between target and ligand, obtained from inhibition or displacement. Low readings indicate higher affinity, high ones lower affinity. As usually defined, the EC50 is the concentration giving half of the maximal effect. `Cc1ccccc1CNC(=O)[C@H]1N(C(=O)[C@@H](O)[C@H](Cc2ccccc2)NC(=O)OC2CC3CCC2C3)CSC1(C)C` (stereo partly shown) registered a Ki in test [1] (Ki, unit inferred) of 9.4 nM. Further, the concentration for a half-maximal effect (EC50) in test [2] (setting [3]) was found to be 2.88 µM.
In test [1] (Ki, unit inferred), `Cc1c(O)cccc1C(=O)N[C@@H](Cc1ccccc1)[C@H](O)C(=O)N1CSC(C)(C)[C@H]1C(=O)N1CCc2ccccc2C1` returned a Ki of 9 nM. Moreover, in test [2] (setting [3]), the EC50 came to 1.18 µM.
`Cc1c(O)cccc1C(=O)N[C@@H](Cc1ccccc1)[C@H](O)C(=O)N1CSC(C)(C)[C@H]1C(=O)N1CCSCC1` [Example A33, N-{(1S,2S)-1-Benzyl-3-[(R)-5,5-dimethyl-4-(1-thiomorpholin-4-yl-methanoyl)-thiazolidin-3-yl]-2-hydroxy-3-oxo-propyl}-3-hydroxy-2-methyl-benzamide] returned a Ki in test [1] (setting [4]) of 5.1 nM. In test [2] (setting [5]), the EC50 stood at 0.749 µM.
`Cc1ccccc1CNC(=O)[C@H]1N(C(=O)[C@@H](O)[C@H](Cc2ccccc2)NC(=O)COc2cccc3ccccc23)CSC1(C)C` had an inhibition constant (Ki) in test [1] (Ki, unit inferred) of 5.8 nM. The concentration giving a half-maximal response (EC50) in test [2] (setting [3]) is not below 3.2 µM.
`C#CCOC(=O)N[C@@H](Cc1ccccc1)[C@H](O)C(=O)N1CSC(C)(C)[C@H]1C(=O)NCc1ccc(OC)cc1` [Example B64, {(1S,2S)-1-Benzyl-2-hydroxy-3-[4-(4-methoxy-benzylcarbamoyl)-5,5-dimethyl-thiazolidin-3-yl]-3-oxo-propyl}-carbamic acid prop-2-ynyl ester] gave a Ki in test [1] (setting [4]) of 0.53 nM. Moreover, the EC50 in test [2] (setting [5]) came out at 1.6 µM.
The like results for `Cc1ccccc1C(=O)N[C@@H](Cc1ccccc1)[C@H](O)C(=O)N1CSC(C)(C)[C@H]1C(=O)N[C@H]1CCc2ccccc21` [Example B78, (R)-3-{(2S,3S)-2-Hydroxy-4-phenyl-3-[(1-o-tolyl-methanoyl)-amino]-butanoyl}-5,5-dimethyl-thiazolidine-4-carboxylic acid (S)-indan-1-ylamide] were, in that order, 0.18 nM and 0.557 µM.
As to `Cc1ccc(C(=O)N[C@@H](Cc2ccccc2)[C@H](O)C(=O)N2CSC(C)(C)[C@H]2C(=O)N[C@H]2CCc3ccccc32)c(C)c1O` [Example B43, (R)-3-((2S,3S)-2-Hydroxy-3-{[1-(3-hydroxy-2,4-dimethyl-phenyl)-methanoyl]-amino}-4-phenyl-butanoyl)-5,5-dimethyl-thiazolidine-4-carboxylic acid (S)-indan-1-ylamide], the inhibition constant (Ki) in test [1] (setting [4]) was less than 0.1 nM. Moreover, the EC50 in test [2] (setting [5]) amounted to 0.375 µM.
`Cc1c(O)cccc1C(=O)N[C@@H](Cc1cccc(F)c1)[C@H](O)C(=O)N1CC(F)(F)C(C)(C)[C@H]1C(=O)NCC(C)C` [Example D3, (S)-4,4-Difluoro-1-[(2S,3S)-4-(3-fluoro-phenyl)-2-hydroxy-3-(3-hydroxy-2-methyl-benzoylamino)-butyryl]-3,3-dimethyl-pyrrolidine-2-carboxylic acid is butyl-amide]: the EC50 in test [2] (setting [5]) was determined as 0.013 µM.
As for `Cc1ccccc1CNC(=O)[C@@H]1C(C(=O)[C@@H](O)[C@H](Cc2ccccc2)NC(=O)c2cccc(O)c2C)[C@@H]2CC[C@@H]1C2` (stereo partly shown), in test [2] (setting [3]), the EC50 is not below 10 µM.
For the compound `C=CCNC(=O)C1N(C(=O)[C@@H](O)[C@H](Cc2cccc(F)c2)NC(=O)c2cccc(O)c2C)CC(F)(F)C1(C)C` (stereo partly drawn) [Example D2, (R)-3-((2S,3R)-4,4-Difluoro-1-[4(3-fluoro-phenyl)-2-hydroxy-3-(3-hydroxy-2-methyl-benzoylamino)-butyryl])-3,3-dimethyl-pyrrolidine-2-carboxylic acid allyiamide], in test [2] (setting [5]), the EC50 turned out to be 0.016 µM.
`Cc1cc(O)c(C)c(C(=O)N[C@@H](Cc2ccccc2)[C@H](O)C(=O)N2CC(F)(F)C(C)(C)[C@H]2C(=O)NCC(F)(F)F)c1` [Example D6, (S)-4,4-Difluoro-1-[(2S,3S)-2-hydroxy-3-(3-hydroxy-2,5-dimethyl-benzoylamino)-4-phenyl-butyryl]-3,3-dimethyl-pyrrolidine-2-carboxylic acid (2,2,2-trifluoro-ethyl)-amide]: the EC50 in test [2] (setting [5]) stood at 0.018 µM.
In the case of `Cc1c(O)cccc1C(=O)N[C@@H](Cc1ccccc1)[C@H](O)C(=O)N1CSC(C)(C)[C@H]1C(=O)NCc1nc2ccccc2[nH]1` [Example A60, (R)-3-[(2S,3S)-2-Hydroxy-3-(3-hydroxy-2-methyl-benzoylamino)-4-phenyl-butyryl]-5,5-dimethyl-thiazolidine-4-carboxylic acid (1H-benzoimidazol-2-ylmethyl)-amide], in test [1] (setting [4]), the affinity corresponds to a Ki of 66.6 nM.
For `Cc1ccccc1CNC(=O)[C@H]1C(C(=O)[C@@H](O)[C@H](Cc2ccccc2)NC(=O)c2cccc(O)c2C)[C@@H]2CC[C@@H]1C2` (stereo partly shown), the EC50 in test [2] (setting [3]) was not below 10 µM.
Compound `Cc1ccccc1CNC(=O)[C@H]1N(C(=O)[C@@H](O)[C@H](Cc2ccccc2)NC(=O)COc2cccc3cnccc23)CSC1(C)C` showed an inhibition constant (Ki) in test [1] (Ki, unit inferred) of 21 nM.
As to `CCCNC(=O)[C@@H]1CC(F)(F)CN1C(=O)[C@@H](O)[C@H](Cc1ccccc1)NC(=O)O[C@H]1CCOC1`, in test [1] (Ki, unit inferred), the inhibition constant (Ki) was determined as 42 nM.
The same measure, in the same setting: under `CCCNC(=O)C1CC(F)(F)CN1C(=O)[C@@H](O)[C@H](Cc1ccccc1)NC(=O)c1cccc(OC(C)=O)c1C` (stereo partly shown) stands 85 nM.
With `Cc1ccccc1CNC(=O)[C@@H]1CC(F)(F)CN1C(=O)[C@@H](O)[C@H](Cc1ccccc1)NC(=O)c1c(C)noc1C` [Example C43, 3,5-Dimethyl-isoxazole-4-carboxylic acid {1-benzyl-3-[4,4-difluoro-2-(2-methyl-benzylcarbamoyl)-pyrrolidin-1-yl]-2-hydroxy-3-oxo-propyl}-amide], in test [1] (setting [4]), the affinity, expressed as Ki, was 21 nM.
With `Cc1ccccc1CNC(=O)[C@H]1N(C(=O)[C@@H](O)[C@H](Cc2ccccc2)NC(=O)Nc2cccc(F)c2)CSC1(C)C` [Example B55, 3-{(2S,3S)-3-[3-(3-Fluoro-phenyl)-ureido]-2-hydroxy-4-phenyl-butyryl}-5,5-dimethyl-thiazolidine-4-carboxylic acid 2-methyl-benzylamide], in test [1] (setting [4]), the inhibition constant (Ki) is 679 nM.
Compound `COc1ccc(CNC(=O)C2N(C(=O)[C@@H](O)[C@H](Cc3ccccc3)NC(=O)OC(C)(C)C)CSC2(C)C)cc1` (stereo partly shown) yielded a Ki in test [1] (Ki, unit inferred) of 25 nM.
Still for that read-out and setting: the value for `C#CC(C)OC(=O)N[C@@H](Cc1ccccc1)[C@H](O)C(=O)N1CSC(C)(C)[C@H]1C(=O)NCc1ccccc1C` (stereo partly shown) was 5.4 nM; that for `CCNC(=O)C1c2ccccc2CN1C(=O)[C@@H](O)[C@H](Cc1ccccc1)NC(=O)c1c(C)noc1C` (stereo partly shown) was 84 nM.
In turn, `Cc1ccccc1CNC(=O)C1N(C(=O)[C@@H](O)C(Cc2ccccc2)NC(=O)/C=C/c2c(Cl)cccc2Cl)CSC1(C)C` (stereo partly shown) gave a Ki in test [1] (Ki, unit inferred) of 11.9 nM.
In test [1] (Ki, unit inferred), `Cc1ccccc1CNC(=O)C1N(C(=O)[C@@H](O)C(Cc2ccccc2)NC(=O)C(C)(C)C)CSC1(C)C` (stereo partly shown) yielded an inhibition constant (Ki) of 47 nM.
For the compound `C=CCOC(=O)N[C@@H](Cc1ccccc1)[C@H](O)C(=O)N1CSC(C)(C)[C@H]1C(=O)NCc1c(F)cccc1F` [Example B50, {(1S,2S)-1-Benzyl-3-[(R)-4-(2,6-difluoro-benzylcarbamoyl)-5,5-dimethyl-thiazolidin-3-yl]-2-hydroxy-3-oxo-propyl}-carbamic acid allyl ester], affinity in test [1] (setting [4]) was put at a Ki of 7.4 nM.
Compound `Cc1ccccc1CNC(=O)C1N(C(=O)[C@@H](O)C(Cc2ccccc2)NC(=O)c2cnc3ccccc3c2)CSC1(C)C` (stereo partly shown) came in with an inhibitory constant (Ki) in test [1] (Ki, unit inferred) of 18.1 nM.
Take `COc1ccc(CNC(=O)N[C@@H](Cc2ccccc2)[C@H](O)C(=O)N2CSC(C)(C)[C@H]2C(=O)NCc2ccccc2C)cc1OC` [Example B74, (R)-3-{(2S,3S)-3-[3-(3,4Dimethoxy-benzyl)ureido]-2-hydroxy-4-phenyl-butyryl}-5,5-dimethyl-thiazolidine-4-carboxylic acid 2-methyl-benzylamide]: the Ki in test [1] (setting [4]) stood at 39 nM.
The compound `Cc1ccccc1CNC(=O)[C@H]1N(C(=O)[C@@H](O)[C@H](Cc2ccccc2)NC(=O)CC(C)N)CSC1(C)C` (stereo partly shown) registered a Ki in test [1] (Ki, unit inferred) of 108 nM.

Source of the values: patent US7094909B2, “HIV protease inhibitors, compositions containing the same, their pharmaceutical uses and materials for their synthesis” (priority 2001, dated 2006).
